Data from ChEMBL document CHEMBL1201862, “PubChem BioAssay data set” (2004).
The source made the active and inactive calls.

What was measured:
[1] = biological target: T1, Microphthalmia-associated transcription factor (Homo sapiens, UniProt O75030); assay: reducers of TRPM1 reporter luminescence, concentration series – cell-based, SK-MEL-5, cherry-picked, set 3, MITF inhibitor project, dose response (AID 493073); type: functional;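 note: SK-MEL-5 melanoma cells with luciferase driven by the MITF target TRPM1 promoter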
T1 sequence (O75030 whole entry): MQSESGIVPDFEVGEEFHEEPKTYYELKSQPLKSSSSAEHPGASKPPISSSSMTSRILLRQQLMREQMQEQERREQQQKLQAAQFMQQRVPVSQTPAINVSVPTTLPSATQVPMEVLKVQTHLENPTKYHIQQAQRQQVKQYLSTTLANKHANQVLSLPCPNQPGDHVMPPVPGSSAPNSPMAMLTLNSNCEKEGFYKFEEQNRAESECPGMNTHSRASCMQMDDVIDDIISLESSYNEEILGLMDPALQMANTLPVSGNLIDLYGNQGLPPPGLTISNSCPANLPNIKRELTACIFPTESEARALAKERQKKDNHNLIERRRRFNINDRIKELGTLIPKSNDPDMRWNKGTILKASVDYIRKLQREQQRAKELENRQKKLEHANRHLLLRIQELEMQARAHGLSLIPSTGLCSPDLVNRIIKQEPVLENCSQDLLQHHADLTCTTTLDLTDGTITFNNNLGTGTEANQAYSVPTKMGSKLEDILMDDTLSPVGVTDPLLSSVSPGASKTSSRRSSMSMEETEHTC

[2] = cells; type: functional
[3] = Vero E6 cell cytotoxicity, dose response, cytotoxicity control for non-replicating M. tuberculosis project, secondary assay (AID 492998); type: functional, VeroE6; conditions: Vero C1008
[4] = Luminescence Cell-Based Dose Retest to Confirm Inhibitors of Cancer Stem Cells. [Related pubchem assays (depositor defined):AID2717, AID2721]; type: functional, Homo sapiens; conditions: Homo sapiens
[5] = MIN6 cell viability loss – mouse insulinoma, cytotoxicity control, dose response (AID 2122); type: functional;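 note: confirmatory high-throughput counterscreen run to flag cytotoxic compounds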
[6] = THP-1 cell cytotoxicity, dose response, cytotoxicity control for non-replicating M. tuberculosis project (AID 489025); type: functional
[7] = non-specific 3'UTR reporter inhibition in Clone20-Shn3RL – cell-based, Renilla luciferase, cherry-picked, counter-screen for Shn3 inhibitor project, dose response (AID 624133); type: functional
[8] = decrease of insulin promoter-GFP reporter – imaging, high-content screening, mouse beta cells (AID 1628); type: functional; conditions: MIN6
[9] = viability of PTEN-deleted HCT116 cells – cell-based, HCT116 PTEN knockout, dose response (AID 1047); type: functional;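 note: HCT116 colon tumor cells with PTEN knocked out; cells exposed to compound for 60 hours before readout; potency for loss of cell viability measured by luminescence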
[10] = loss of viability in HepG2 cells – cell-based, CellTiter-Glo, cherry-picked, cytotoxicity control for Shn3 inhibitor project, dose response (AID 624134); type: functional
[11] = test system: A-375; assay: MITF: Counter assay: A375 proliferation Measured in Cell-Based System Using Plate Reader - 2084-03_Inhibitor_Dose_DryPowder_Activity. [Related pubchem assays (depositor defined):AID488944]; type: functional; conditions: Homo sapiens
[12] = reduction of Shn3 3'UTR-driven luciferase in osteoblasts – cell-based, Clone20 osteoblasts, firefly luciferase, cherry-picked, dose response (AID 624132); type: functional;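 note: firefly luciferase luminescence from reporter carrying the Shn3 3'UTR in osteoblasts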
[13] = biological target: NACHT, LRR and PYD domains-containing protein 1 (Homo sapiens, UniProt Q9C000); assay: NALP1 inhibitors in yeast, dose response, luminescent (AID 488860); type: functional
Sequence of NACHT, LRR and PYD domains-containing protein 1 (Q9C000 1-1212 limits assumed): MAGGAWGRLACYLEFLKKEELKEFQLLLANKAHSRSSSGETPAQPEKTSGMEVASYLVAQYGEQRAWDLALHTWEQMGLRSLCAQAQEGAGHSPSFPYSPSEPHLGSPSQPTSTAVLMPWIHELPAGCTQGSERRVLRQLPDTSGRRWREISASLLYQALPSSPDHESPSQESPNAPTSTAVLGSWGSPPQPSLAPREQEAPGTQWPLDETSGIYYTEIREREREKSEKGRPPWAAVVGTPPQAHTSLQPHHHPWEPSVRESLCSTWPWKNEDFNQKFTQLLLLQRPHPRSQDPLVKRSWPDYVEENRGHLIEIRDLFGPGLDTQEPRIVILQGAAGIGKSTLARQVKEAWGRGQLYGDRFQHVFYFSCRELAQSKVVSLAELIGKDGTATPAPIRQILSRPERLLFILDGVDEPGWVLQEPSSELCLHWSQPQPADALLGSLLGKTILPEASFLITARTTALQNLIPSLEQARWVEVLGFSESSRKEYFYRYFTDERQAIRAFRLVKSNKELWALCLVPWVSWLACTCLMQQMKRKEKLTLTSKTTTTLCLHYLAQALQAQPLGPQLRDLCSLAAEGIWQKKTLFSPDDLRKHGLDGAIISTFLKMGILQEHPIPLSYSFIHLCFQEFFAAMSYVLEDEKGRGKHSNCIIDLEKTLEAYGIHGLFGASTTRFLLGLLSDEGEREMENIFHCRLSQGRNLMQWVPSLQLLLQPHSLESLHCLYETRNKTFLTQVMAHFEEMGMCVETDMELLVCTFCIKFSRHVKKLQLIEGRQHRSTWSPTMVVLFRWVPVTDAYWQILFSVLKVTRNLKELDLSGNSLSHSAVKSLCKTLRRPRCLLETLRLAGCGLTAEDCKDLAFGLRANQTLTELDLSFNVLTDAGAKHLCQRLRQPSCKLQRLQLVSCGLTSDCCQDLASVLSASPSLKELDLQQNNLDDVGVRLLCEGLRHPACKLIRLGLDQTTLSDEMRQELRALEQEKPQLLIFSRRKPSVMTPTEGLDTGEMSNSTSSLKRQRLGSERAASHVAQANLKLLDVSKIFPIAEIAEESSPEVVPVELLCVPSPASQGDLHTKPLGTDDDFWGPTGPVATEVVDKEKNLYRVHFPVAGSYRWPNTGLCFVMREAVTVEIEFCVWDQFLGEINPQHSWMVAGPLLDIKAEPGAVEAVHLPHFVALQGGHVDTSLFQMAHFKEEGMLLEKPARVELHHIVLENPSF
Sequence of NACHT, LRR and PYD domains-containing protein 1 (Q9C000 1213-1473 limits assumed): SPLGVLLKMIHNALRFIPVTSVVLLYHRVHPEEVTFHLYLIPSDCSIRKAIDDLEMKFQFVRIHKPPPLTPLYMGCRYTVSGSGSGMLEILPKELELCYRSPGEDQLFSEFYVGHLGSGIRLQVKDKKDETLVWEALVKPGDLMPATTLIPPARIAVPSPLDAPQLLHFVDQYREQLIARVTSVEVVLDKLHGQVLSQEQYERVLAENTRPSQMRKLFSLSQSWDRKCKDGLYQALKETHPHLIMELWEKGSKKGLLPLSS

[14] = viability of HCT116 lacking mutant beta-catenin – cell-based, human colon tumor, dose response (AID 1045); type: functional;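 note: HCT116 colon tumor cells with beta catenin knocked out; cells exposed to compound for 60 hours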
[15] = test system: Saccharomyces cerevisiae; assay: S. cerevisiae Caspase-1/ASC signal blockers IC50, NALP1 inhibitor project selectivity test (AID 488863); type: functional, organism-based
[16] = test system: A-375; assay: proliferation inhibition in MITF-low A375 cells – cell-based, cherry-pick samples, set 2, counter-screen for MITF modulator project, dose response (AID 540335); type: functional; conditions: Homo sapiens
[17] = HepG2 cell cytotoxicity, dose response, cytotoxicity control for non-replicating M. tuberculosis project (AID 489018); type: functional; conditions: Mycobacterium tuberculosis
[18] = biological target: Type-1 angiotensin II receptor (Homo sapiens, UniProt P30556); assay: antagonism of angiotensin II type 1 receptor – cell-based, uHTS hits, selectivity assay for APJ receptor antagonist project, dose response (AID 463214); type: functional;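 note: antagonist potency against angiotensin II stimulated AT1 response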
Sequence of Type-1 angiotensin II receptor (P30556 whole entry): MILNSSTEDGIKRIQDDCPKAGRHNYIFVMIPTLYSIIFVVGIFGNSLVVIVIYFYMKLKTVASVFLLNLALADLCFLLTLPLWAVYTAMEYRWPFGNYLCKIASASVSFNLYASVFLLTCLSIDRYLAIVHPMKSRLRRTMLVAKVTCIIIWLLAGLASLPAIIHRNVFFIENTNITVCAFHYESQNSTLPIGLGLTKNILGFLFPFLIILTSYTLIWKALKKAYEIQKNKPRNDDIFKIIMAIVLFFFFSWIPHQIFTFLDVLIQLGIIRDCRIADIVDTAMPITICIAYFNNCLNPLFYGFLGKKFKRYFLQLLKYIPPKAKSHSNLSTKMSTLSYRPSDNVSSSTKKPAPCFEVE

[19] = biological target: Beta-galactosidase (Escherichia coli, UniProt Q8VNN2); assay: PubChem AID 485352; type: functional
Sequence of Beta-galactosidase (Q8VNN2 whole entry): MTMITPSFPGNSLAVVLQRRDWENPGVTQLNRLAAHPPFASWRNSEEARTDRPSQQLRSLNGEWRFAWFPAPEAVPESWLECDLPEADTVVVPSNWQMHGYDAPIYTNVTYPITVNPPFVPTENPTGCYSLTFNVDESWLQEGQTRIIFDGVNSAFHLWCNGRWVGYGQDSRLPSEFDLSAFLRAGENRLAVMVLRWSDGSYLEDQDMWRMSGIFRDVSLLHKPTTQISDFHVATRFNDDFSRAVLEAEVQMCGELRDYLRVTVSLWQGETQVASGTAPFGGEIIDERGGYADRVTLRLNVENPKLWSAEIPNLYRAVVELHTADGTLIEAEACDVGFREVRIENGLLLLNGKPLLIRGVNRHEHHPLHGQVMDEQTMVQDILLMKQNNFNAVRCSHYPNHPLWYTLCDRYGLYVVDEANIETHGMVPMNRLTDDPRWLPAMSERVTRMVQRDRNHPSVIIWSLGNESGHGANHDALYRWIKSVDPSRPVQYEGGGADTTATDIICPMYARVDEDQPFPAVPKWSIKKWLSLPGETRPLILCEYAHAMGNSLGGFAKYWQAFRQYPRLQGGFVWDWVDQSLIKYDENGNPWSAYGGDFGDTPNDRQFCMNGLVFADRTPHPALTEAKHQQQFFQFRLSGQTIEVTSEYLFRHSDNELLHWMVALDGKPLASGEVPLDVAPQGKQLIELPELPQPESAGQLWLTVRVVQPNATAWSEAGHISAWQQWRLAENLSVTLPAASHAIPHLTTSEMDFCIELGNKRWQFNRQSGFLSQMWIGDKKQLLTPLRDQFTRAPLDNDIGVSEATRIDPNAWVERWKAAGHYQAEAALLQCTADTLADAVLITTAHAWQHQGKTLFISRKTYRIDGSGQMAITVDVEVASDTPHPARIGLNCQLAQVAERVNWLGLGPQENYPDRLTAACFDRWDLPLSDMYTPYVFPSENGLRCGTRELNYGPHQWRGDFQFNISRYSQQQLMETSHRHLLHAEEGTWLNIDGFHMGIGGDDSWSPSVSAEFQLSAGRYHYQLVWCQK

[20] = test system: Candida albicans; assay: resistant Candida growth with fluconazole co-treatment – CaCi-8 strain, Alamar Blue, dry powder, set 2, dose response (AID 488909); type: functional, organism-based
[21] = test system: Candida albicans; assay: fluconazole-resistant Candida strain growth inhibitors – CaCi-8 strain, dry powder, set 4, dose response (AID 488950); type: functional, organism-based
[22] = test system: Candida albicans; assay: C. albicans growth inhibition with fluconazole – CaCi-2 strain, Alamar Blue, dry powder, set 4, dose response (AID 488943); type: functional, organism-based
[23] = biological target: Phospholipase D1 (Homo sapiens, UniProt Q13393); assay: cellular phospholipase D1 inhibition IC50 – cell-based, dose response (AID 602151); type: functional;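 note: cellular PLD1 assay in Calu-1 cells stimulated with PMA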
Sequence of Phospholipase D1 (Q13393 whole entry): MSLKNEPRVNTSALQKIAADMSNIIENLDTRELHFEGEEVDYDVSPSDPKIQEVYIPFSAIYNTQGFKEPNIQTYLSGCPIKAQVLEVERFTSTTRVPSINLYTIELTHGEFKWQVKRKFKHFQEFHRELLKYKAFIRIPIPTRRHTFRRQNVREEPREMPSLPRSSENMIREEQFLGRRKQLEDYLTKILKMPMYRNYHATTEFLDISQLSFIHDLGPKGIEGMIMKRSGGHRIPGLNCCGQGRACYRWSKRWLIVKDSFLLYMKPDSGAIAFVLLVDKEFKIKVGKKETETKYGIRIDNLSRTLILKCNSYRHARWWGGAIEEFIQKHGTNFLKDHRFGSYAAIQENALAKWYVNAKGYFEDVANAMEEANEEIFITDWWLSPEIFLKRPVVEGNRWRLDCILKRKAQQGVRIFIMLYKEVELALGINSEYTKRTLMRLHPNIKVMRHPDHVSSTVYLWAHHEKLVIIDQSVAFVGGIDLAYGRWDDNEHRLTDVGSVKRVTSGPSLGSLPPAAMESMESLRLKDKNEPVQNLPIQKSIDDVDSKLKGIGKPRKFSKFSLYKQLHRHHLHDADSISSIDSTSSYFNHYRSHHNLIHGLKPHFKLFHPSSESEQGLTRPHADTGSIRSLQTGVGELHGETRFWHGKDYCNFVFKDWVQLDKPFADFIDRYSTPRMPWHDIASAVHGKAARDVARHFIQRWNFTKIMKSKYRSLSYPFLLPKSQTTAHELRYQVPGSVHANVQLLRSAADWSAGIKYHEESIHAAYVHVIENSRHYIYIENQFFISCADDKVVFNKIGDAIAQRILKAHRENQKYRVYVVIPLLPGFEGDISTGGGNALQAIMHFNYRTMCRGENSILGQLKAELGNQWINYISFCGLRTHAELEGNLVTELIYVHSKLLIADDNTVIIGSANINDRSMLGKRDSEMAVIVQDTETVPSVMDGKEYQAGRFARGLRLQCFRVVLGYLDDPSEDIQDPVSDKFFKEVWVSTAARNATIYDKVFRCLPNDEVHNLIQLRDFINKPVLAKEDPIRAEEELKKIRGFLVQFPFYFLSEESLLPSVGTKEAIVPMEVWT

[24] = biological target: Phospholipase D2 (Homo sapiens, UniProt O14939); assay: cellular phospholipase D2 inhibition IC50 – cell-based, dose response (AID 602147); type: functional;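 note: cellular assay in HEK293 cells overexpressing GFP-tagged PLD2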
Sequence of Phospholipase D2 (O14939 whole entry): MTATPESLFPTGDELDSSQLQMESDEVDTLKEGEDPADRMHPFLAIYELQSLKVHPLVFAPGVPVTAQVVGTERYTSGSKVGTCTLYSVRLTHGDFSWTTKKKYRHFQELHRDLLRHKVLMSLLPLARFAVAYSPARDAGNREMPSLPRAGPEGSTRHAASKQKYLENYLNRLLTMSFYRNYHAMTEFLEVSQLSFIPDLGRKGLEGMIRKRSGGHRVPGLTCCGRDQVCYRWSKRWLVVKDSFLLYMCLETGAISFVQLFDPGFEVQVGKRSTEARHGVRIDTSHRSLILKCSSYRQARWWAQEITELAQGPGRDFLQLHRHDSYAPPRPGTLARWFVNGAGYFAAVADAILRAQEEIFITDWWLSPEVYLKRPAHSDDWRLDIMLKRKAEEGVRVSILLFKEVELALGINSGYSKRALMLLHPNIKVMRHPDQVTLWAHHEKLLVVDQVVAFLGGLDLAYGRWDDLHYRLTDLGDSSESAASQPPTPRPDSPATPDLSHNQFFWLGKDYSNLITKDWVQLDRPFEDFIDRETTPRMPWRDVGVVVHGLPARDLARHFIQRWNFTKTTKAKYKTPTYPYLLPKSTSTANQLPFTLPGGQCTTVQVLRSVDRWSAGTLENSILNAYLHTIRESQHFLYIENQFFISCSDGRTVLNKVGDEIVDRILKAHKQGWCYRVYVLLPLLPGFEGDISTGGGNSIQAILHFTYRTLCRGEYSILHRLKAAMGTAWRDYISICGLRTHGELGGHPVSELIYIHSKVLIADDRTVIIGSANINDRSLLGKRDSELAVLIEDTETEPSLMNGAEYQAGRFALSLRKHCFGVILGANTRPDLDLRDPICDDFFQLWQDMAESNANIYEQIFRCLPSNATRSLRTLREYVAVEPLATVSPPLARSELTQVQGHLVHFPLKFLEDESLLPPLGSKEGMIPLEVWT

In the case of `CCCOc1ccc(C(=O)C(CN2CCCC2)c2ccccc2)cc1` (centres undefined), the AC50 [1] is reported as 8.62 µM (active), the IC50 [2] is reported as 12.7 µM (active) and the CC50 [3] is reported as 9.02 µM (active). For the same molecule, the AC50 [4] was 1.76 µM (active), the IC50 [5] was 3.13 µM (active) and the CC50 [6] was 6.32 µM (active). For the same molecule, the AC50 [7] was 13.2 µM (active), the IC50 [8] was 3.73 µM (active) and the EC50 [9] was 2.19 µM (active). The AC50 [10] was 22.6 µM (active), the AC50 [11] was > 35 µM (active) and the AC50 [12] was 4.84 µM (active). For the same molecule, the IC50 [13] was 10.2 µM (active), the EC50 [14] was 1.96 µM (active) and the IC50 [15] was 5.8 µM (active). For the same molecule, the AC50 [16] was > 35 µM (active) and the CC50 [17] was 13.3 µM (active).

In the case of `Cc1ccc(C)c(NCC(=O)c2ccc(Cl)cc2)c1`, the IC50 [18] is reported as 14.4 µM (active) and the EC50 [19] is reported as > 40 µM (inactive).

For `O=C(c1ccc(Cl)cc1)N1CCN(c2ncnc3ccccc23)CC1`, the AC50 [20] was 4.12 µM (active), the AC50 [21] was 2.27 µM (active) and the AC50 [22] was 1.07 µM (active).

In the case of `O=C(NCCN1CCC(n2c(=O)[nH]c3ccccc32)CC1)c1cscn1`, the IC50 [23] is reported as 0.033 µM (active) and the IC50 [24] is reported as 0.25 µM (active).
